# Results: US20230054926A1, “COMPOSITIONS AND METHODS FOR MICROBIAL TREATMENT OF SKIN DISORDERS” (DUPONT US HOLDING, LLC, priority 2020, published 2023)
# Test system: M. globosa
# Assay: Flow cytometry analysis of M. globosa growth inhibition by cell free fermentate
# Assay type: cell-based, Malassezia globosa
# Settings: Example 6, 200 μl supernatant + 800 μl diluted culture, vs respective media control, amphotericin B 2.5 μg/ml
# Procedure: The growth medium for Malassezia species was a modified Leeming & Notman (mLN) media that contained 10 g/L bacteriological peptone, 2 g/L yeast extract, 8 g/L desiccated ox bile, 10 ml/L glycerol, 0.5 g/L glycerol monostearate, 5 ml/L Tween-60 and 20 ml/L palm oil.
# Lipid emulsion by the presence of lipids and surfactants in the mLN media as well as cell clumping phenotype of Malassezia spp, make it difficult to monitor cell growth by optical density measurement or colony counting after spreading a culture aliquot on plates, To circumvent this issue, flow cytometry with cell staining dyes was used to quantitatively measure cell growth in lipid emulsion media. […]
# At different time points, 50 μl aliquot from each culture was subjected to mild sonication with amplitude of 5 and 1 sec on/off cycle for 30 sec using Qsonica 0700 (Qsonica, Newtown, Conn.). […] The samples were analyzed by flow cytometry using a Novocyte Quanteon (Asea). SytoBC, a cell permeable DNA/RNA intercalating dye was excited by the 488 laser and detected using a 530/30 bandwidth filter. Concanavalin A, a mannose binding lectin labeled with alexaFluor 640, was excited with the 637 nm laser and detected using a 660/20 bandwidth filter. […] Malassezia cell counts were determined by gating on high sytoBC, high ConA events and recording the event/ul values for each sample. […]
structure (smiles),measurement,setting,value
"C[C@@H]1[C@H](O)[C@@H](C)/C=C/C=C/C=C/C=C/C=C/C=C/C=C/[C@H](O[C@@H]2O[C@H](C)[C@@H](O)[C@H](N)[C@@H]2O)C[C@@H]2O[C@](O)(C[C@@H](O)C[C@@H](O)[C@H](O)CC[C@@H](O)C[C@@H](O)CC(=O)O[C@H]1C)C[C@H](O)[C@H]2C(=O)O [Amphotericin B, amphotericin B]",% M. globosa growth inhibition,Day 1,4%
same,% M. globosa growth inhibition,Day 3,88%
